Measurements reported in patent US5416222A, “3-pyrrolidine methanamines wherein the alpha-carbon is substituted by 1 or 2 lower alkyl groups which are intermediates for pyridone-carboxylic acid derivatives” (Daiichi Seiyaku Co., Ltd., priority 1985, dated 1995).
In brackets after ≈: the same amount, converted by molar mass.

Experiments:
[1] = absorption after oral administration to rats; format: in vivo; details: rat, 20 mg/kg; for half-life: serum half life, 0.693/Kel; for Cmax / AUC(0-t) at 6 h: serum; for Cmax: 5 rats per group; for AUC(0-t) at 6 h: zero to 6 h, trapezoidal method, read-out: AUC0-6H
Description: The compounds of the present invention and the comparative compound were orally given to rats (one group: 5 rats) at a dose of 20 mg/kg to measure the oral absorption of the compounds. The concentration of the compound in the blood of the rat was measured at 15 minutes, 30 minutes, and 1, 2, 3, 4, and 6 hours after administration.
Serum half lives (T1/2) were calculated as 0.693/Kel, where Kel is the elimination rate constant determined by linear regression analysis of the natural logarithm of serum concentration-time data. The area under the serum concentration-versus time curve from zero to 6 h (AUC0-6H) was calculated by the trapezoidal method, The results obtained are as follows: […]

[2] = in words, prior art discussion; cited from earlier work
physchem = format: physicochemical; details: water
Description: (§1) The water-solubility and acute toxicity of the compounds of the present invention and the comparative compounds, were measured. The results obtained are shown hereunder. The water-solubility was measured by the following method.
(i) Preparation of standard solution
About 400 μg of the sample to be measured was accurately weighed (the weight was defined as W μg), and 0.1N NaOH solution was added thereto to bring the whole volume to 50 ml. The UV absorbance of a given amount of the solution was measured and the measured absorbance was defined as A1.
(ii) Preparation of sample to be measured
Distilled water was added to the sample to be measured (fine powder) in such amount that the sample was not completely dissolved but suspended, and then the suspension was vigorously agitated at room temperature (between 23° and 26° C.) for 30 minutes. Insoluble matter of the sample was removed therefrom by filtration, after which 3 ml sample of the filtrate (satulated aqueous solution of the sample) was taken. 3 ml of 0.2N NaOH solution was added to the filtrate sample to bring the total volume to 6 ml (i.e. the filtrate was diluted to 50% concentration.) To 1 ml of the resulting solution, 0.1N NaOH solution was further added to bring the total volume to 25 ml […]. In this connection, degree of dilution was occasionally changed, depending on degree of UV absorbance. The UV absorbance of the given amount of the solution was measured and the resulting absorbance was defined to as A2. Where the number of dilution is N, water-solubility (s) is obtained from the following equation: [formula]

mouse = test: acute toxicity to mouse; format: in vivo; details: 200 mg/kg; i.v.
Description: as §1
*200 mg/kg; i.v, (deaths/total number) As is obvious from the above

Ps. cepacia, IID1340 = test: antimicrobial activity, MIC, standard process of Japan Society of Chemotherapy; format: cell-based; details: for MIC: Burkholderia cepacia, IID1340, Ps. cepacia, read-out: minimum growth inhibitory concentration (MIC)
Description: (§2) The antimicrobial activities of the compounds of the present invention were determined according to a standard process designated by the Japan Society of Chemotherapy and the minimum growth inhibitory concentrations (MIC) (μg/ml) the compounds were determined.

Pr. mirabilis, IF03849 = test: as above; format: cell-based; details: for MIC: Proteus mirabilis, IF03849, Pr. mirabilis, read-out: minimum growth inhibitory concentration (MIC)
Description: as §2

Ps. maltophilia, IID1275 = test: as above; format: cell-based; details: for MIC: Stenotrophomonas maltophilia, IID1275, Ps. maltophilia, read-out: minimum growth inhibitory concentration (MIC)
Description: as §2

Sh. flexneri, 2a5503 = test: as above; format: cell-based; details: for MIC: Shigella flexneri, read-out: minimum growth inhibitory concentration (MIC)
Description: as §2

Str. pyogenes, G-36 = test: as above; format: cell-based; details: for MIC: Streptococcus pyogenes, G36, Str. pyogenes, read-out: minimum growth inhibitory concentration (MIC)
Description: as §2

Ps. aeruginosa, 2063 = test: as above; format: cell-based; details: for MIC: Pseudomonas aeruginosa, 2063, Ps. aeruginosa, read-out: minimum growth inhibitory concentration (MIC)
Description: as §2

Ps. aeruginosa, 2128 = test: as above; format: cell-based; details: for MIC: Pseudomonas aeruginosa, 2128, Ps. aeruginosa, read-out: minimum growth inhibitory concentration (MIC)
Description: as §2

[3] = test system: Str. faecalis, ATCC 19433; test: as above; format: cell-based; details: for MIC: Enterococcus faecalis, ATCC19433, Str. faecalis, read-out: minimum growth inhibitory concentration (MIC)
Description: as §2

E. coli, NIHJ = test: as above; format: cell-based; details: for MIC: Escherichia coli, read-out: minimum growth inhibitory concentration (MIC)
Description: as §2

Pr. vulgaris, 3167 = test: as above; format: cell-based; details: for MIC: Proteus vulgaris, 3167, Pr. vulgaris, read-out: minimum growth inhibitory concentration (MIC)
Description: as §2

Ser. marcescens, 13001 = test: as above; format: cell-based; details: for MIC: Serratia marcescens, 13001, Ser. marcescens, read-out: minimum growth inhibitory concentration (MIC)
Description: as §2

S. aureus, 209P = test: as above; format: cell-based; details: for MIC: Staphylococcus aureus, read-out: minimum growth inhibitory concentration (MIC)
Description: as §2

[4] = test system: Gram-negative microorganisms; details: in words, prior art discussion; cited from earlier work
S. epidermidis, 56500 = test: antimicrobial activity, MIC, standard process of Japan Society of Chemotherapy; format: cell-based; details: for MIC: Staphylococcus epidermidis, 56500, S. epidermidis, read-out: minimum growth inhibitory concentration (MIC)
Description: as §2

SMILES: CNCC1CCN(c2c(F)cc3c(=O)c(C(=O)O)cn(C4CC4)c3c2F)C1 (stereo not drawn) [Compound B, 1-cyclopropyl-6,8-difluoro-(3-methylaminomethyl-1-pyrolidinyl)-1,4-dihydro-4-oxoquinoline-3-carboxylic acid, reference compound]
- half-life [1]: 1.55 h
- Cmax [1]: 1370 ng/mL
- AUC(0-t) at 6 h [1]: 3610 ng·h/mL
- water-solubility (prior art compounds) [2]: extremely low water-solubility
- solubility at 0.5 h (physchem): 80 µg/mL (≈ 212 µM)
- Acute toxicity to mouse (mouse): 2/5
- MIC (Ps. cepacia, IID1340): 1.56 µg/mL (≈ 4.13 µM)
- MIC (Pr. mirabilis, IF03849): ≤ 0.05 µg/mL
- MIC (Ps. maltophilia, IID1275): 0.2 µg/mL (≈ 0.53 µM)
- MIC (Sh. flexneri, 2a5503): 0.1 µg/mL (≈ 0.265 µM)
- MIC (Str. pyogenes, G-36): 0.1 µg/mL (≈ 0.265 µM)
- MIC (Ps. aeruginosa, 2063): 0.2 µg/mL (≈ 0.53 µM)
- MIC (Ps. aeruginosa, 2128): 0.2 µg/mL (≈ 0.53 µM)
- MIC [3]: 0.1 µg/mL (≈ 0.265 µM)
- MIC (E. coli, NIHJ): ≤ 0.05 µg/mL
- MIC (Pr. vulgaris, 3167): ≤ 0.05 µg/mL
- MIC (Ser. marcescens, 13001): ≤ 0.05 µg/mL
- MIC (S. aureus, 209P): ≤ 0.05 µg/mL
- antimicrobial activity against Gram-negative microorganisms (prior art compounds) [4]: strong antimicrobial activity

SMILES: CNC(C)C1CCN(c2c(F)cc3c(=O)c(C(=O)O)cn(C4CC4)c3c2F)C1 (single isomer, unassigned) [Example 7]
- half-life [1]: 2.01 h
- Cmax [1]: 2210 ng/mL
- AUC(0-t) at 6 h [1]: 6310 ng·h/mL
- solubility at 0.5 h (physchem): 710 µg/mL (≈ 1810 µM)
- Acute toxicity to mouse (mouse): 1/5
- minimum growth inhibitory concentration (MIC) (Ps. cepacia, IID1340; Ps. cepacia): 0.78 µg/mL
- minimum growth inhibitory concentration (MIC) (Pr. mirabilis, IF03849; Pr. mirabilis): ≤ 0.05 µg/mL
- minimum growth inhibitory concentration (MIC) (Ps. maltophilia, IID1275; Ps. maltophilia): 0.20 µg/mL
- minimum growth inhibitory concentration (MIC) (Sh. flexneri, 2a5503): ≤ 0.05 µg/mL
- minimum growth inhibitory concentration (MIC) (Str. pyogenes, G-36; Str. pyogenes): ≤ 0.05 µg/mL
- minimum growth inhibitory concentration (MIC) (Ps. aeruginosa, 2063; Ps. aeruginosa): 0.20 µg/mL
- minimum growth inhibitory concentration (MIC) (Ps. aeruginosa, 2128; Ps. aeruginosa): 0.10 µg/mL
- minimum growth inhibitory concentration (MIC) ([3]; Str. faecalis): ≤ 0.05 µg/mL
- minimum growth inhibitory concentration (MIC) (S. epidermidis, 56500; S. epidermidis): ≤ 0.05 µg/mL
- minimum growth inhibitory concentration (MIC) (E. coli, NIHJ): ≤ 0.05 µg/mL
- minimum growth inhibitory concentration (MIC) (Pr. vulgaris, 3167; Pr. vulgaris): ≤ 0.05 µg/mL
- minimum growth inhibitory concentration (MIC) (Ser. marcescens, 13001; Ser. marcescens): 0.10 µg/mL
- minimum growth inhibitory concentration (MIC) (S. aureus, 209P): ≤ 0.05 µg/mL

SMILES: CCNCC1CCN(c2c(F)cc3c(=O)c(C(=O)O)cn(C4CC4)c3c2F)C1 (stereo not drawn) [Compound A, 1-cyclopropyl-6,8-difluoro-(3-ethylaminomethyl-1-pyrolidinyl)-1,4-dihydro-4-oxoquinoline-3-carboxylic acid, reference compound]
- water-solubility (prior art compounds) [2]: extremely low water-solubility
- solubility at 0.5 h (physchem): 40 µg/mL (≈ 102 µM)
- Acute toxicity to mouse (mouse): 3/5
- MIC (Ps. cepacia, IID1340): 0.78 µg/mL (≈ 1.99 µM)
- MIC (Pr. mirabilis, IF03849): ≤ 0.05 µg/mL
- MIC (Ps. maltophilia, IID1275): 0.39 µg/mL (≈ 0.996 µM)
- MIC (Sh. flexneri, 2a5503): ≤ 0.05 µg/mL
- MIC (Str. pyogenes, G-36): 0.1 µg/mL (≈ 0.255 µM)
- MIC (Ps. aeruginosa, 2063): 0.39 µg/mL (≈ 0.996 µM)
- MIC (Ps. aeruginosa, 2128): 0.2 µg/mL (≈ 0.511 µM)
- MIC [3]: 0.1 µg/mL (≈ 0.255 µM)
- MIC (S. epidermidis, 56500): ≤ 0.05 µg/mL
- MIC (E. coli, NIHJ): ≤ 0.05 µg/mL
- MIC (Pr. vulgaris, 3167): 0.1 µg/mL (≈ 0.255 µM)
- MIC (Ser. marcescens, 13001): 0.1 µg/mL (≈ 0.255 µM)
- MIC (S. aureus, 209P): ≤ 0.05 µg/mL
- antimicrobial activity against Gram-negative microorganisms (prior art compounds) [4]: strong antimicrobial activity

SMILES: CC(C)(N)C1CCN(c2c(F)cc3c(=O)c(C(=O)O)cn(C4CC4)c3c2F)C1 (stereo not drawn) [Example 11, 7-[3-(1-Amino-1-methyl)ethyl-1-pyrrolidinyl]-1-cyclopropyl-6,8-difluoro-1,4-dihydro-4-oxoquinoline-3-carboxylic acid]
- half-life [1]: 2.27 h
- Cmax [1]: 2100 ng/mL
- AUC(0-t) at 6 h [1]: 6430 ng·h/mL
- solubility at 0.5 h (physchem): 200 µg/mL (≈ 511 µM)
- Acute toxicity to mouse (mouse): 0/5
- MIC (Ps. cepacia, IID1340): 0.78 µg/mL (≈ 1.99 µM)
- MIC (Pr. mirabilis, IF03849): 0.1 µg/mL (≈ 0.255 µM)
- MIC (Ps. maltophilia, IID1275): 0.1 µg/mL (≈ 0.255 µM)
- MIC (Sh. flexneri, 2a5503): ≤ 0.05 µg/mL
- MIC (Str. pyogenes, G-36): ≤ 0.05 µg/mL
- MIC (Ps. aeruginosa, 2063): 0.78 µg/mL (≈ 1.99 µM)
- MIC (Ps. aeruginosa, 2128): 0.2 µg/mL (≈ 0.511 µM)
- MIC [3]: ≤ 0.05 µg/mL
- MIC (S. epidermidis, 56500): ≤ 0.05 µg/mL
- MIC (E. coli, NIHJ): ≤ 0.05 µg/mL
- MIC (Pr. vulgaris, 3167): ≤ 0.05 µg/mL
- MIC (Ser. marcescens, 13001): 0.1 µg/mL (≈ 0.255 µM)
- MIC (S. aureus, 209P): ≤ 0.05 µg/mL

SMILES: CC(C)(N)C1CCN(c2nc3c(cc2F)c(=O)c(C(=O)O)cn3C2CC2)C1 (stereo not drawn) [Example 13, 7-[3-(1-Amino-1-methyl)ethyl-1-pyrrolidinyl]-1-cyclo-propyl-6-difluoro-1,4-dihydro-4-oxo-1,8-naphthyridine-3-carboxylic acid]
- half-life [1]: 2.41 h
- Cmax [1]: 2140 ng/mL
- AUC(0-t) at 6 h [1]: 7950 ng·h/mL
- solubility at 0.5 h (physchem): 2000 µg/mL (≈ 5340 µM)
- Acute toxicity to mouse (mouse): 1/5
- MIC (Ps. cepacia, IID1340): 0.78 µg/mL (≈ 2.08 µM)
- MIC (Pr. mirabilis, IF03849): 0.39 µg/mL (≈ 1.04 µM)
- MIC (Ps. maltophilia, IID1275): 0.2 µg/mL (≈ 0.534 µM)
- MIC (Sh. flexneri, 2a5503): ≤ 0.05 µg/mL
- MIC (Str. pyogenes, G-36): 0.1 µg/mL (≈ 0.267 µM)
- MIC (Ps. aeruginosa, 2063): 0.39 µg/mL (≈ 1.04 µM)
- MIC (Ps. aeruginosa, 2128): 0.2 µg/mL (≈ 0.534 µM)
- MIC [3]: 0.2 µg/mL (≈ 0.534 µM)
- MIC (S. epidermidis, 56500): ≤ 0.05 µg/mL
- MIC (E. coli, NIHJ): ≤ 0.05 µg/mL
- MIC (Pr. vulgaris, 3167): 0.1 µg/mL (≈ 0.267 µM)
- MIC (Ser. marcescens, 13001): 0.2 µg/mL (≈ 0.534 µM)
- MIC (S. aureus, 209P): ≤ 0.05 µg/mL
